# Experimental data: ChEMBL document CHEMBL4145553, “Design, synthesis, and biological evaluation of novel amide and hydrazide based thioether analogs targeting Histone deacteylase (HDAC) enzymes” (Eur J Med Chem, 2018)
# Legend:
# HOP-62 = test: Growth inhibition of human HOP62 cells assessed as cell growth at 10^-5 M incubated for 48 hrs by sulforhodamine B assay relative to control; assay type: functional; conditions: HOP-62, 48 h, read-out: Activity
# SF-539 [1] = test: Growth inhibition of human SF539 cells incubated for 48 hrs by sulforhodamine B assay; assay type: functional; conditions: SF-539, 48 h
# OVCAR-4 = test: Growth inhibition of human OVCAR4 cells assessed as cell growth at 10^-6 M incubated for 48 hrs by sulforhodamine B assay relative to control; assay type: functional; conditions: OVCAR-4, 48 h, read-out: Activity
# OVCAR-8 [2] = test: Growth inhibition of human OVCAR8 cells incubated for 48 hrs by sulforhodamine B assay; assay type: functional; conditions: OVCAR-8, 48 h
# OVCAR-8 [3] = test: Growth inhibition of human OVCAR8 cells assessed as cell growth at 10^-8 M incubated for 48 hrs by sulforhodamine B assay relative to control; assay type: functional; conditions: OVCAR-8, 48 h, read-out: Activity
# OVCAR-5 = test: Growth inhibition of human OVCAR5 cells incubated for 48 hrs by sulforhodamine B assay; assay type: functional; conditions: OVCAR-5, 48 h
# SR = test: Growth inhibition of human SR cells assessed as cell growth at 10^-7 M incubated for 48 hrs by sulforhodamine B assay relative to control; assay type: functional; conditions: read-out: Activity
# HT-29 = test: Growth inhibition of human HT-29 cells assessed as cell growth at 10^-4 M incubated for 48 hrs by sulforhodamine B assay relative to control; assay type: functional; conditions: HT-29, 48 h, read-out: Activity
# A498 = test: Growth inhibition of human A498 cells assessed as cell growth at 10^-8 M incubated for 48 hrs by sulforhodamine B assay relative to control; assay type: functional; conditions: A498, 48 h, read-out: Activity
# U-251 = test: Growth inhibition of human U251 cells assessed as cell growth at 10^-6 M incubated for 48 hrs by sulforhodamine B assay relative to control; assay type: functional; conditions: U-251, 48 h, read-out: Activity
# MDA-MB-468 = test: Growth inhibition of human MDA-MB-468 cells assessed as cell growth at 10^-7 M incubated for 48 hrs by sulforhodamine B assay relative to control; assay type: functional; conditions: MDA-MB-468, 48 h, read-out: Activity
# NCI/ADR-RES = test: Growth inhibition of human NCI/ADR-RES cells assessed as cell growth at 10^-4 M incubated for 48 hrs by sulforhodamine B assay relative to control; assay type: functional; conditions: read-out: Activity
# SF-539 [4] = test: Growth inhibition of human SF539 cells assessed as cell growth at 10^-5 M incubated for 48 hrs by sulforhodamine B assay relative to control; assay type: functional; conditions: SF-539, 48 h, read-out: Activity
# HL-60(TB) = test: Growth inhibition of human HL-60(TB) cells assessed as cell growth at 10^-5 M incubated for 48 hrs by sulforhodamine B assay relative to control; assay type: functional; conditions: HL-60, 48 h, read-out: Activity
# UACC-62 [5] = test: Growth inhibition of human UACC62 cells incubated for 48 hrs by sulforhodamine B assay; assay type: functional; conditions: UACC-62, 48 h
# 786-0 [6] = test: Growth inhibition of human 786-0 cells assessed as cell growth at 10^-6 M incubated for 48 hrs by sulforhodamine B assay relative to control; assay type: functional; conditions: 786-0, 48 h, read-out: Activity
# BT-549 [7] = test: Growth inhibition of human BT549 cells assessed as cell growth at 10^-5 M incubated for 48 hrs by sulforhodamine B assay relative to control; assay type: functional; conditions: BT-549, 48 h, read-out: Activity
# K562 [8] = test: Growth inhibition of human K562 cells incubated for 48 hrs by sulforhodamine B assay; assay type: functional; conditions: K562, 48 h
# IGROV-1 = test: Growth inhibition of human IGROV1 cells assessed as cell growth at 10^-5 M incubated for 48 hrs by sulforhodamine B assay relative to control; assay type: functional; conditions: IGROV-1, 48 h, read-out: Activity
# UACC-62 [9] = test: Growth inhibition of human UACC62 cells assessed as cell growth at 10^-7 M incubated for 48 hrs by sulforhodamine B assay relative to control; assay type: functional; conditions: UACC-62, 48 h, read-out: Activity
# Malme-3M [10] = test: Growth inhibition of human MALME-3M cells assessed as cell growth at 10^-5 M incubated for 48 hrs by sulforhodamine B assay relative to control; assay type: functional; conditions: read-out: Activity
# K562 [11] = test: Growth inhibition of human K562 cells assessed as cell growth at 10^-8 M incubated for 48 hrs by sulforhodamine B assay relative to control; assay type: functional; conditions: K562, 48 h, read-out: Activity
# UACC-62 [12] = test: Growth inhibition of human UACC62 cells assessed as cell growth at 10^-6 M incubated for 48 hrs by sulforhodamine B assay relative to control; assay type: functional; conditions: UACC-62, 48 h, read-out: Activity
# SF-268 = test: Growth inhibition of human SF268 cells assessed as cell growth at 10^-7 M incubated for 48 hrs by sulforhodamine B assay relative to control; assay type: functional; conditions: SF-268, 48 h, read-out: Activity
# BT-549 [13] = test: Growth inhibition of human BT549 cells assessed as cell growth at 10^-8 M incubated for 48 hrs by sulforhodamine B assay relative to control; assay type: functional; conditions: BT-549, 48 h, read-out: Activity
# T47D = test: Growth inhibition of human T47D cells assessed as cell growth at 10^-5 M incubated for 48 hrs by sulforhodamine B assay relative to control; assay type: functional; conditions: read-out: Activity
# 786-0 [14] = test: Growth inhibition of human 786-0 cells assessed as cell growth at 10^-5 M incubated for 48 hrs by sulforhodamine B assay relative to control; assay type: functional; conditions: 786-0, 48 h, read-out: Activity
# Histone deacetylase 8 = Histone deacetylase 8 (Homo sapiens, UniProt Q9BY41); test: Inhibition of HDAC8 (unknown origin) by ELISA
# MCF7 = test: Growth inhibition of human MCF7 cells assessed as cell growth at 10^-5 M incubated for 48 hrs by sulforhodamine B assay relative to control; assay type: functional; conditions: MCF7, 48 h, read-out: Activity
# UO-31 = test: Growth inhibition of human UO31 cells assessed as cell growth at 10^-7 M incubated for 48 hrs by sulforhodamine B assay relative to control; assay type: functional; conditions: UO-31, 48 h, read-out: Activity
# Malme-3M [15] = test: Growth inhibition of human MALME-3M cells assessed as cell growth at 10^-6 M incubated for 48 hrs by sulforhodamine B assay relative to control; assay type: functional; conditions: read-out: Activity
# [16] = read-out: LC50 (the source's name)
# [17] = read-out: pLC50 (the source's name) (converted)
# Histone deacetylase 8, sequence (Q9BY41 whole entry): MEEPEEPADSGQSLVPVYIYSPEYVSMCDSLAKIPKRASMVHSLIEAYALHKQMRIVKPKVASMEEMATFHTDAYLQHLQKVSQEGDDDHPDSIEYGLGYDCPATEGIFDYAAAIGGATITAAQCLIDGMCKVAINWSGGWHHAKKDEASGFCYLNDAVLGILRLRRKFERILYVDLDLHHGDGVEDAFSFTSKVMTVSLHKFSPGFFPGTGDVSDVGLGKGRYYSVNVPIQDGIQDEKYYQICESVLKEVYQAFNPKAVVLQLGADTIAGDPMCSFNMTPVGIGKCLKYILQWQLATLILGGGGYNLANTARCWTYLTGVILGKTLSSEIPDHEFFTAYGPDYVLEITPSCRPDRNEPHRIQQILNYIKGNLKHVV
structure (smiles),measurement,setting,value
CCS/C(Nc1ccccc1)=C(\C#N)C(=O)Nc1ccc(OC)cc1,growth at 10 µM,HOP-62,41%
same,GI50,SF-539 [1]; read-out: GI50,1.96 µM
same,CC50,SF-539 [1]; [16],52.9 µM
same,TGI,SF-539 [1]; read-out: TGI,4.81 µM
same,GI50,SF-539 [1]; read-out: pGI50 (converted),1.95 µM
same,CC50,SF-539 [1]; [17],52.5 µM
same,TGI,SF-539 [1]; read-out: pTGI (converted),4.79 µM
same,growth at 1 µM,OVCAR-4,88%
same,GI50,OVCAR-8 [2]; read-out: GI50,4.37 µM
same,CC50,OVCAR-8 [2]; [16],> 100 µM
same,TGI,OVCAR-8 [2]; read-out: TGI,> 100 µM
same,GI50,OVCAR-8 [2]; read-out: pGI50 (converted),4.37 µM
same,CC50,OVCAR-8 [2]; [17],> 100 µM
same,TGI,OVCAR-8 [2]; read-out: pTGI,> 100 µM
same,growth at 0.01 µM,OVCAR-8 [3],100%
same,GI50,OVCAR-5; read-out: GI50,5.52 µM
same,CC50,OVCAR-5; [16],> 100 µM
same,TGI,OVCAR-5; read-out: TGI,> 100 µM
same,GI50,OVCAR-5; read-out: pGI50 (converted),5.5 µM
same,CC50,OVCAR-5; [17],> 100 µM
same,TGI,OVCAR-5; read-out: pTGI,> 100 µM
same,growth at 0.1 µM,SR,85%
same,growth at 100 µM,HT-29,-8%
same,growth at 0.01 µM,A498,91%
same,growth at 1 µM,U-251,94%
same,growth at 0.1 µM,MDA-MB-468,86%
same,growth at 100 µM,NCI/ADR-RES,10%
same,growth at 10 µM,SF-539 [4],-41%
same,growth at 10 µM,HL-60(TB),7%
same,GI50,UACC-62 [5]; read-out: GI50,2.58 µM
same,CC50,UACC-62 [5]; [16],> 100 µM
same,TGI,UACC-62 [5]; read-out: TGI,> 100 µM
same,GI50,UACC-62 [5]; read-out: pGI50 (converted),2.57 µM
same,CC50,UACC-62 [5]; [17],> 100 µM
same,TGI,UACC-62 [5]; read-out: pTGI,> 100 µM
same,growth at 1 µM,786-0 [6],83%
same,growth at 10 µM,BT-549 [7],21%
same,GI50,K562 [8]; read-out: GI50,0.436 µM
same,CC50,K562 [8]; [16],> 100 µM
same,TGI,K562 [8]; read-out: TGI,> 100 µM
same,GI50,K562 [8]; read-out: pGI50 (converted),0.437 µM
same,CC50,K562 [8]; [17],> 100 µM
same,TGI,K562 [8]; read-out: pTGI,> 100 µM
same,growth at 10 µM,IGROV-1,39%
same,growth at 0.1 µM,UACC-62 [9],93%
same,growth at 10 µM,Malme-3M [10],61%
same,growth at 0.01 µM,K562 [11],106%
same,growth at 1 µM,UACC-62 [12],71%
same,growth at 0.1 µM,SF-268,97%
same,growth at 0.01 µM,BT-549 [13],98%
same,growth at 10 µM,T47D,25%
same,growth at 10 µM,786-0 [14],30%
same,IC50,Histone deacetylase 8,0.295 µM
same,growth at 10 µM,MCF7,15%
same,growth at 0.1 µM,UO-31,91%
same,growth at 1 µM,Malme-3M [15],79%
CCS/C(Nc1ccccc1)=C(\C#N)C(=O)N/N=C\c1ccc(Cl)cc1Cl,growth at 10 µM,HOP-62,29%
same,GI50,SF-539 [1]; read-out: GI50,2.89 µM
same,CC50,SF-539 [1]; [16],> 100 µM
same,TGI,SF-539 [1]; read-out: TGI,20.6 µM
same,GI50,SF-539 [1]; read-out: pGI50 (converted),2.88 µM
same,CC50,SF-539 [1]; [17],> 100 µM
same,TGI,SF-539 [1]; read-out: pTGI (converted),20.4 µM
same,growth at 1 µM,OVCAR-4,86%
same,GI50,OVCAR-8 [2]; read-out: GI50,4.81 µM
same,CC50,OVCAR-8 [2]; [16],> 100 µM
same,TGI,OVCAR-8 [2]; read-out: TGI,> 100 µM
same,GI50,OVCAR-8 [2]; read-out: pGI50 (converted),4.79 µM
same,CC50,OVCAR-8 [2]; [17],> 100 µM
same,TGI,OVCAR-8 [2]; read-out: pTGI,> 100 µM
same,growth at 0.01 µM,OVCAR-8 [3],94%
same,GI50,OVCAR-5; read-out: GI50,8.25 µM
same,CC50,OVCAR-5; [16],> 100 µM
same,TGI,OVCAR-5; read-out: TGI,> 100 µM
same,GI50,OVCAR-5; read-out: pGI50 (converted),8.32 µM
same,CC50,OVCAR-5; [17],> 100 µM
same,TGI,OVCAR-5; read-out: pTGI,> 100 µM
same,growth at 0.1 µM,SR,80%
same,growth at 100 µM,HT-29,9%
same,growth at 0.01 µM,A498,91%
same,growth at 1 µM,U-251,94%
same,growth at 0.1 µM,MDA-MB-468,88%
same,growth at 100 µM,NCI/ADR-RES,11%
same,growth at 10 µM,SF-539 [4],3%
same,growth at 10 µM,HL-60(TB),8%
same,GI50,UACC-62 [5]; read-out: GI50,2.74 µM
same,CC50,UACC-62 [5]; [16],> 100 µM
same,TGI,UACC-62 [5]; read-out: TGI,> 100 µM
same,GI50,UACC-62 [5]; read-out: pGI50 (converted),2.75 µM
same,CC50,UACC-62 [5]; [17],> 100 µM
same,TGI,UACC-62 [5]; read-out: pTGI,> 100 µM
same,growth at 1 µM,786-0 [6],83%
same,growth at 10 µM,BT-549 [7],18%
same,GI50,K562 [8]; read-out: GI50,0.855 µM
same,CC50,K562 [8]; [16],> 100 µM
same,TGI,K562 [8]; read-out: TGI,> 100 µM
same,GI50,K562 [8]; read-out: pGI50 (converted),0.851 µM
same,CC50,K562 [8]; [17],> 100 µM
same,TGI,K562 [8]; read-out: pTGI,> 100 µM
same,growth at 10 µM,IGROV-1,42%
same,growth at 0.1 µM,UACC-62 [9],91%
same,growth at 10 µM,Malme-3M [10],49%
same,growth at 0.01 µM,K562 [11],106%
same,growth at 1 µM,UACC-62 [12],69%
same,growth at 0.1 µM,SF-268,94%
same,growth at 0.01 µM,BT-549 [13],98%
same,growth at 10 µM,T47D,24%
same,growth at 10 µM,786-0 [14],23%
same,IC50,Histone deacetylase 8,0.202 µM
same,growth at 10 µM,MCF7,14%
same,growth at 0.1 µM,UO-31,90%
same,growth at 1 µM,Malme-3M [15],79%
